Toxic doses and inconclusive results are not listed. No stated cut-off is given here; in the data, active means T/C of 150% or more; inactive means T/C below 125%.
Tested on: L1210 leukemia ip in BDF1 mice, survival T/C
Experiment: NCI In Vivo Anticancer Drug Screen. Data for tumor model L1210 Leukemia (intraperitoneal) in B6D2F1 (BDF1) mice
Conditions: endpoint: mean survival time, higher = longer survival
How it was run: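 Transplantable tumor model; survival measured in treated vs vehicle control mice. Value = treated/control.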

[1] = dose: 100.0 mg/kg/injection, schedule: Q04DX002 (ip), vehicle: Klucel (hydroxypropylcellulose) (HPC)
[2] = dose: 200.0 mg/kg/injection, schedule: Q04DX002 (ip), vehicle: Klucel (hydroxypropylcellulose) (HPC)
[3] = dose: 400.0 mg/kg/injection, schedule: Q04DX002 (ip), vehicle: Klucel (hydroxypropylcellulose) (HPC)
[4] = dose: 100.0 mg/kg/injection, schedule: Q01DX001 (ip), vehicle: carboxymethylcellulose (CMC)
[5] = dose: 200.0 mg/kg/injection, schedule: Q01DX001 (ip), vehicle: carboxymethylcellulose (CMC)
[6] = dose: 400.0 mg/kg/injection, schedule: Q01DX001 (ip), vehicle: carboxymethylcellulose (CMC)
[7] = dose: 100.0 mg/kg/injection, schedule: Q01DX009 (ip), vehicle: Klucel (hydroxypropylcellulose) (HPC)
[8] = dose: 200.0 mg/kg/injection, schedule: Q01DX009 (ip), vehicle: Klucel (hydroxypropylcellulose) (HPC)
[9] = dose: 100.0 mg/kg/injection, schedule: Q04DX003 (ip), vehicle: Klucel (hydroxypropylcellulose) (HPC)
[10] = dose: 200.0 mg/kg/injection, schedule: Q04DX003 (ip), vehicle: Klucel (hydroxypropylcellulose) (HPC)
[11] = dose: 400.0 mg/kg/injection, schedule: Q04DX003 (ip), vehicle: Klucel (hydroxypropylcellulose) (HPC)
[12] = dose: 100.0 mg/kg/injection, schedule: Q04DX003 (ip), vehicle: saline
[13] = dose: 200.0 mg/kg/injection, schedule: Q04DX003 (ip), vehicle: saline
[14] = dose: 100.0 mg/kg/injection, schedule: Q04DX003 (ip), vehicle: saline with Tween-80
[15] = dose: 200.0 mg/kg/injection, schedule: Q04DX003 (ip), vehicle: saline with Tween-80
[16] = dose: 400.0 mg/kg/injection, schedule: Q04DX003 (ip), vehicle: saline with Tween-80
[17] = dose: 50.0 mg/kg/injection, schedule: Q01DX009 (ip), vehicle: saline
[18] = dose: 100.0 mg/kg/injection, schedule: Q01DX009 (ip), vehicle: saline
[19] = dose: 50.0 mg/kg/injection, schedule: Q01DX001 (ip), vehicle: carboxymethylcellulose (CMC)
[20] = dose: 100.0 mg/kg/injection, schedule: Q01DX001 (ip), vehicle: saline
[21] = dose: 200.0 mg/kg/injection, schedule: Q01DX001 (ip), vehicle: saline
[22] = dose: 400.0 mg/kg/injection, schedule: Q01DX001 (ip), vehicle: saline

Measured: T/C

CN(N=O)C(=O)NCCOC(=O)N(C)N=O
inactive: dose: 6.25 mg/kg/injection, schedule: Q01DX Z (ip), vehicle: carboxymethylcellulose (CMC) 124 % of control | dose: 12.5 mg/kg/injection, schedule: Q01DX Z (ip), vehicle: carboxymethylcellulose (CMC) 124 % of control

CCOC(=O)CNc1cccc(C)c1
inactive: [1] 100 % of control | [2] 110 % of control | [3] 107 % of control

CC(C)N(CCSc1ncnc2nc[nH]c12)C(C)C
inactive: dose: 75.0 mg/kg/injection, schedule: Q01DX001 (ip), vehicle: saline 96 % of control

CCOC(=S)c1ccc(S(=O)(=O)Nc2ccccc2)cc1
inactive: dose: 100.0 mg/kg/injection, schedule: Q01DX001 (ip), vehicle: saline with Tween-80 100 % of control | dose: 200.0 mg/kg/injection, schedule: Q01DX001 (ip), vehicle: saline with Tween-80 97 % of control | dose: 400.0 mg/kg/injection, schedule: Q01DX001 (ip), vehicle: saline with Tween-80 95 % of control

ClCc1ccc(-c2ccc(CCl)cc2)cc1
inactive: dose: 30.0 mg/kg/injection, schedule: Q01DX015 (ip), vehicle: carboxymethylcellulose (CMC) 116 % of control | dose: 60.0 mg/kg/injection, schedule: Q01DX015 (ip), vehicle: carboxymethylcellulose (CMC) 106 % of control | [4] 100 % of control | dose: 120.0 mg/kg/injection, schedule: Q01DX015 (ip), vehicle: carboxymethylcellulose (CMC) 102 % of control | [5] 104 % of control | dose: 240.0 mg/kg/injection, schedule: Q01DX015 (ip), vehicle: carboxymethylcellulose (CMC) 98 % of control | dose: 300.0 mg/kg/injection, schedule: Q01DX015 (ip), vehicle: carboxymethylcellulose (CMC) 108 % of control | [6] 105 % of control

O=C(O)c1ccc([N+](=O)[O-])cc1P(=O)(O)O
inactive: dose: 75.0 mg/kg/injection, schedule: Q04DX003 (ip), vehicle: saline with Tween-80 103 % of control

Cc1c(C(=O)NN)no[n+]1[O-]
inactive: dose: 25.0 mg/kg/injection, schedule: Q04DX002 (ip), vehicle: Klucel (hydroxypropylcellulose) (HPC) 96 % of control | dose: 50.0 mg/kg/injection, schedule: Q04DX002 (ip), vehicle: Klucel (hydroxypropylcellulose) (HPC) 93 % of control | [1] 93 % of control

O=C(NC1CC1(c1ccccc1)c1ccccc1)NC1CC1(c1ccccc1)c1ccccc1 (stereo not given)
inactive: dose: 300.0 mg/kg/injection, schedule: Q01DX001 (ip), vehicle: other 86 % of control

CCOC(=O)N/N=C(\C)c1ccc(OC)cc1
inactive: [7] 98 % of control | [8] 112 % of control

COc1ccc(OC)c(NC(=O)N(Cc2ccccc2)Cc2ccccc2)c1
inactive: [9] 93 % of control | [10] 87 % of control | [11] 88 % of control

COC(=O)c1ccc(OS(=O)(=O)c2cccc([N+](=O)[O-])c2)cc1
inactive: [7] 96 % of control | [9] 90 % of control | [8] 98 % of control | [10] 95 % of control | dose: 400.0 mg/kg/injection, schedule: Q01DX009 (ip), vehicle: Klucel (hydroxypropylcellulose) (HPC) 118 % of control | [11] 90 % of control

CCC(=O)Oc1ccccc1C(=O)O
inactive: dose: 25.0 mg/kg/injection, schedule: Q01DX009 (ip), vehicle: Klucel (hydroxypropylcellulose) (HPC) 98 % of control | dose: 50.0 mg/kg/injection, schedule: Q01DX009 (ip), vehicle: Klucel (hydroxypropylcellulose) (HPC) 98 % of control | [7] 103 % of control

CN(C)CCN(C)Cc1cc(=O)[nH]c(=O)[nH]1
inactive: [12] 96 % of control | [13] 100 % of control | dose: 400.0 mg/kg/injection, schedule: Q04DX003 (ip), vehicle: saline 100 % of control

COc1cc(C)c(NC(=O)Oc2ccccc2)c(C)c1
inactive: [14] 89 % of control | [15] 91 % of control | [16] 91 % of control

CCOC(=O)NCCN(C)C
inactive: [17] 105 % of control | [18] 102 % of control | [12] 99 % of control | dose: 200.0 mg/kg/injection, schedule: Q01DX009 (ip), vehicle: saline 108 % of control | [13] 102 % of control

CCOCC1c2ccccc2CCN1Cc1c[nH]c2ccccc12 (stereo not given)
inactive: [19] 97 % of control | [4] 89 % of control | [5] 90 % of control

O=C(Sc1n[nH]c(=O)[nH]c1=O)c1ccccc1
inactive: [20] 109 % of control | [21] 107 % of control | [22] 105 % of control

c1ccc(CC[n+]2ccccc2)cc1
inactive: dose: 10.0 mg/kg/injection, schedule: Q01DX001 (ip), vehicle: saline 106 % of control | dose: 20.0 mg/kg/injection, schedule: Q01DX001 (ip), vehicle: saline 94 % of control | dose: 40.0 mg/kg/injection, schedule: Q01DX001 (ip), vehicle: saline 95 % of control

CC(=O)SC1CC(=O)OC1=O (stereo not given)
inactive: [17] 96 % of control | [20] 96 % of control | [18] 102 % of control | [21] 104 % of control | [22] 98 % of control

O=[N+]([O-])c1ncn(C2CCCCO2)c1Br (stereo not given)
inactive: dose: 50.0 mg/kg/injection, schedule: Q04DX003 (ip), vehicle: gum acacia 99 % of control | dose: 100.0 mg/kg/injection, schedule: Q04DX003 (ip), vehicle: gum acacia 100 % of control | dose: 200.0 mg/kg/injection, schedule: Q04DX003 (ip), vehicle: gum acacia 100 % of control

CCC1CN2CCc3cc(OC)c(OC)cc3C2CC1CC1c2cc(OC)c(OC)cc2CCN1C(=O)C1CCCN1C(=O)OCc1ccccc1 (stereo not given)
inactive: [19] 97 % of control | [4] 101 % of control | [5] 106 % of control | [6] 97 % of control

CC(NC1=NCCO1)c1cccc2ccccc12 (stereo not given)
inactive: dose: 25.0 mg/kg/injection, schedule: Q01DX009 (ip), vehicle: saline with Tween-80 94 % of control | dose: 50.0 mg/kg/injection, schedule: Q01DX009 (ip), vehicle: saline with Tween-80 94 % of control | [14] 96 % of control | [15] 94 % of control | [16] 89 % of control

CCOC(=O)c1cnc(SC)nc1Nc1ccccc1OC
inactive: [9] 90 % of control | [10] 92 % of control | [11] 87 % of control

CCN(CC)CCCC(C)Nc1ccc(O)c2c1C(=O)c1ccccc1C2=O (stereo not given)
inactive: dose: 25.0 mg/kg/injection, schedule: Q01DX009 (ip), vehicle: saline 100 % of control | [17] 93 % of control | [18] 104 % of control | dose: 100.0 mg/kg/injection, schedule: Q04DX002 (ip), vehicle: saline 100 % of control | dose: 200.0 mg/kg/injection, schedule: Q04DX002 (ip), vehicle: saline 102 % of control

O=c1cc(/C=C/c2ccc3ccccc3n2)c2ccccc2[nH]1
inactive: [20] 98 % of control | [21] 96 % of control | [22] 102 % of control

CCCCS(=O)(=O)C1C2CCC(O2)C1S(=O)(=O)CCCC (stereo not given)
inactive: [1] 92 % of control | [2] 105 % of control | [3] 101 % of control

Cc1cc(C2=NCCN2)ccc1NC(=O)c1ccc(C(=O)Nc2ccc(C3=NCCN3)cc2C)cc1
inactive: dose: 15.0 mg/kg/injection, schedule: Q01DX Z (ip), vehicle: saline 100 % of control | dose: 30.0 mg/kg/injection, schedule: Q01DX Z (ip), vehicle: saline 106 % of control | dose: 60.0 mg/kg/injection, schedule: Q01DX Z (ip), vehicle: saline 110 % of control
